biological target: T1, E. coli OGDHc E1 (Escherichia coli, UniProt P0AFG3); assay: E. coli OGDHc E1 inhibitory activity assay (DCPIP reduction); type: biochemical; settings: [Compound] = 250 μM, [ThDP] = 50 μM
T1 sequence (P0AFG3 1-933): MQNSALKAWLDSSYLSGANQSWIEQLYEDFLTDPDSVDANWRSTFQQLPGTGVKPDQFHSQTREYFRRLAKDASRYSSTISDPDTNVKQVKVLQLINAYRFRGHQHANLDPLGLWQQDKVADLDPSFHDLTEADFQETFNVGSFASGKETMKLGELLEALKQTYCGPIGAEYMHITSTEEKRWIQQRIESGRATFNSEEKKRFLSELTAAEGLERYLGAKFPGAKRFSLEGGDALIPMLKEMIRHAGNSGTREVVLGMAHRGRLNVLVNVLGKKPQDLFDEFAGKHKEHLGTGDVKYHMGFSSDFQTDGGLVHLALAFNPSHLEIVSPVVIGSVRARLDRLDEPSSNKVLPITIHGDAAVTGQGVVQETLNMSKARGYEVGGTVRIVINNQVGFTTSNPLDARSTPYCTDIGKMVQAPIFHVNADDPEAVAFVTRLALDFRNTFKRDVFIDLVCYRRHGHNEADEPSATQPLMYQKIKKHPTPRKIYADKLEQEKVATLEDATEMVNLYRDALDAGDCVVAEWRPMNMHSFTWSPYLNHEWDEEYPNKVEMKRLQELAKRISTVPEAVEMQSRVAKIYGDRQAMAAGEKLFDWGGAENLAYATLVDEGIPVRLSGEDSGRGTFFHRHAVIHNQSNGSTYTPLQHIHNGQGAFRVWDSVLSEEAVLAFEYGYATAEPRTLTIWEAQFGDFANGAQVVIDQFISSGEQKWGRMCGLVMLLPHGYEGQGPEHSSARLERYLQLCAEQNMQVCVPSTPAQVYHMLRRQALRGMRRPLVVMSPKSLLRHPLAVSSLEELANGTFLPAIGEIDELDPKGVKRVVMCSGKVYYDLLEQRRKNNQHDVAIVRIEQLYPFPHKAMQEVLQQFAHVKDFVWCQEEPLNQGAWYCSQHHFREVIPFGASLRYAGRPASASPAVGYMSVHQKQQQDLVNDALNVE
Procedure: E. coli OGDHc E1 inhibitory activity assay. E. coli OGDHc E1 was from our previous work 5 and had been donated by R. Frank. Its activity was determined by monitoring DCPIP reduction at 600 nm using a microplate reader (CLARIOstar) and conducted as described 1,2 with some modifications. The percentage inhibition of compounds against E. coli OGDHc E1 was assayed at a final concentration of 250 µM. The reaction buffer (50 mM KH 2PO4 and 2 mM MgCl 2, pH 7) contained 50 µM ThDP (or 125 µM in the competition assay), 0.5 mM DCPIP, and 6.7 mg/ml E. coli OGDHc E1. The reaction mixture was preincubated at 37 °C for 60 min, then reaction was initiated by adding α-ketoglutarate to a final concentration of 10 mM. To determine the IC 50, ThDP concentration was lowered to 30 µM, and inhibitor concentration was varied (2-1000 µM). Specific activity was calculated using the molar […]
for the PDHc E1 assay. […] 5 […]

SMILES	inhibition at 250 µM [%]
Cc1ncc(Cn2cc(CCCO)nn2)c(N)n1 [Compound 9b]	50 ± 3
Cc1ncc(Cn2cc(CCCC(=O)NO)nn2)c(N)n1 [Compound 24b]	> 90
COc1cccc(C(=O)NCCc2cn(Cc3cnc(C)nc3N)nn2)c1 [Compound 21a]	63 ± 3
Cc1ncc(Cn2cc(CCCCC(=O)NO)nn2)c(N)n1 [Compound 24c]	> 90
Cc1ncc(Cn2cc(CCCCn3cc(-c4ccc(F)cc4)nn3)nn2)c(N)n1 [Compound 16c]	< 20
COc1ccc(-c2cn(CCCc3cn(Cc4cnc(C)nc4N)nn3)nn2)cc1 [Compound 17b]	< 20
COc1ccccc1C(=O)NCCCCc1cn(Cc2cnc(C)nc2N)nn1 [Compound 22c]	35 ± 3
Cc1ncc(Cn2cc(CCCC(=O)Nc3ccccc3N)nn2)c(N)n1 [Compound 26b]	52 ± 2

same assay, conditions: [ThDP] 30 μM

SMILES	IC50 [µM]
Cc1ncc(Cn2cc(CCCC(=O)NO)nn2)c(N)n1 [Compound 24b]	20 ± 2
Cc1ncc(Cn2cc(CCCCC(=O)NO)nn2)c(N)n1 [Compound 24c]	15 ± 3

same assay, conditions: determined according to the KM for ThDP

SMILES	Ki [µM]
Cc1ncc(Cn2cc(CCCC(=O)NO)nn2)c(N)n1 [Compound 24b]	2.02
Cc1ncc(Cn2cc(CCCCC(=O)NO)nn2)c(N)n1 [Compound 24c]	1.46

same assay, conditions: increased ThDP: [Compound] = 250 μM, [ThDP] = 125 μM

SMILES	inhibition at 250 µM [%]
Cc1ncc(Cn2cc(CCCC(=O)NO)nn2)c(N)n1 [Compound 24b]	78 ± 3
Cc1ncc(Cn2cc(CCCCC(=O)NO)nn2)c(N)n1 [Compound 24c]	82 ± 2
Cc1ncc(Cn2cc(CCCCn3cc(-c4ccc(F)cc4)nn3)nn2)c(N)n1 [Compound 16c]	< 20
COc1ccc(-c2cn(CCCc3cn(Cc4cnc(C)nc4N)nn3)nn2)cc1 [Compound 17b]	< 20

tested on: P. falciparum strain 3D7; assay: Anti-plasmodial activity assay (SYBR-Safe); type: cell-based, Plasmodium falciparum; settings: not given
Procedure: Next the effects of the thiamine/ThDP analogues on in vitro proliferation of the 3D7 strain of P. falciparum were determined. […] Parasite proliferation was measured by SYBR-Safe assay of parasite DNA.[11],[15]
(§1) Cell-based assays (Results)
(§2) Anti-plasmodial activity assay. This study used human malaria parasite P. falciparum strain 3D7 (chloroquine-sensitive) and the same strain expressing an extra copy of TPK with a GFP-tag ( PfTPK-GFP) generated as previously described. 9 The intraerythrocytic stage of the parasites were maintained essentially as previously described. 10 Compounds were tested at concentrations up to a highest final […]
(§3) were prepared in dimethyl sulfoxide (DMSO) followed by dilution in RPMI 1640 medium in the absence of thiamine or in the presence of 2.97 µM (or 297 µM) thiamine. The final concentration of DMSO that the parasites were exposed to never exceeded 0.05%. Two-fold serial dilutions were then performed, with each concentration tested in triplicate. The assay was performed as described 11 with some modifications. Experiments were initiated with parasites in the ring-stage, a parasitemia level of 0.5% and a haematocrit of 2%. Chloroquine (0.5 µM) was used as the positive control ( i.e. complete inhibition of parasite proliferation), and parasites maintained in the absence of any inhibitor represented 100% parasite proliferation. The final volume in each well was 200 µL. Plates were incubated at 37 °C, under an atmosphere of 96% nitrogen, 3% carbon dioxide and 1% oxygen. Parasite proliferation was measured by performing SYBR-Safe assay. 12 The concentration at which the compound suppresses […]
Excel and analysed by non-linear regression plot using GraphPad Prism. The data were averaged from three independent experiments. […]

SMILES	fold more potent than 17c at inhibiting proliferation of the parasites [fold]
Cc1ncc(Cn2cc(CCCC(=O)NO)nn2)c(N)n1 [Compound 24b]	~50

same assay, conditions: 3D7, thiamine-free medium; read-out: IC50 of Suppression of P. falciparum proliferation, Thiamine-free

SMILES	IC50 [µM]
Cc1ncc(Cn2cc(CCCC(=O)NO)nn2)c(N)n1 [Compound 24b]	0.9 ± 0.1

same assay, conditions: Plasmodium falciparum, 3D7, 3D7, [Thiamine] = 2.97 μM; read-out: IC50 of Suppression of P. falciparum proliferation, [Thiamine] = 2.97 μM

SMILES	IC50 [µM]
Cc1ncc(Cn2cc(CCCC(=O)NO)nn2)c(N)n1 [Compound 24b]	1.3 ± 0.2
Cc1ncc(Cn2cc(CCCCC(=O)NO)nn2)c(N)n1 [Compound 24c]	3.8 ± 2
Cc1ncc(Cn2cc(CCCCn3cc(-c4ccc(F)cc4)nn3)nn2)c(N)n1 [Compound 16c]	70 ± 8
COc1ccc(-c2cn(CCCc3cn(Cc4cnc(C)nc4N)nn3)nn2)cc1 [Compound 17b]	78 ± 8

same assay, conditions: Plasmodium falciparum, 3D7, 3D7, [Thiamine] = 297 μM; read-out: IC50 of Suppression of P. falciparum proliferation, [Thiamine] = 297 μM

SMILES	IC50 [µM]
Cc1ncc(Cn2cc(CCCC(=O)NO)nn2)c(N)n1 [Compound 24b]	1.4 ± 0.4
Cc1ncc(Cn2cc(CCCCC(=O)NO)nn2)c(N)n1 [Compound 24c]	4 ± 1.8
Cc1ncc(Cn2cc(CCCCn3cc(-c4ccc(F)cc4)nn3)nn2)c(N)n1 [Compound 16c]	89 ± 19
COc1ccc(-c2cn(CCCc3cn(Cc4cnc(C)nc4N)nn3)nn2)cc1 [Compound 17b]	82 ± 11

same assay, conditions: Plasmodium falciparum, 3D7, 3D7, thiamine-free medium; read-out: IC50 of Suppression of P. falciparum proliferation, Thiamine-free

SMILES	IC50 [µM]
Cc1ncc(Cn2cc(CCCC(=O)NO)nn2)c(N)n1 [Compound 24b]	0.9 to 3
Cc1ncc(Cn2cc(CCCCn3cc(-c4ccc(F)cc4)nn3)nn2)c(N)n1 [Compound 16c]	67 ± 5
COc1ccc(-c2cn(CCCc3cn(Cc4cnc(C)nc4N)nn3)nn2)cc1 [Compound 17b]	51 ± 3

same assay, conditions: thiamine-free culture medium

SMILES	fold more active than 24c (anti-plasmodial) [fold]
Cc1ncc(Cn2cc(CCCC(=O)NO)nn2)c(N)n1 [Compound 24b]	3

tested on: not listed separately; assay: in vitro; type: cell-based, human; settings: human
Procedure: as §1, §2, §3
(§4) Excel and analysed by non-linear regression plot using GraphPad Prism. The data were averaged from three independent experiments.
(§5) Cytotoxicity assay. This study used HFF cells (human foreskin fibroblasts) as described 13 with some modifications. The HFF cells were seeded in 96-well plates at a density of about 13 x 10^4 cells/mL.
(§6) Plates were incubated at 37 °C in a humidified 5% carbon dioxide incubator for 96 h. A sample of the supernatant (150 µL) was then carefully aspirated from each well and discarded. The plates were then stored at -80 °C. SYBR- Safe assay was used. The plates were thawed, SYBR-Safe lysis solution (150 µL) was added to each well and mixed via pipetting to ensure the HFF cells were detached from the plate and lysed. The plates were then processed as described for the anti-plasmodial assay.

SMILES	IC50 at 96 h [µM]
Cc1ncc(Cn2cc(CCCC(=O)NO)nn2)c(N)n1 [Compound 24b]	15 ± 3
Cc1ncc(Cn2cc(CCCCC(=O)NO)nn2)c(N)n1 [Compound 24c]	44 ± 4
Cc1ncc(Cn2cc(CCCCn3cc(-c4ccc(F)cc4)nn3)nn2)c(N)n1 [Compound 16c]	48 ± 5
COc1ccc(-c2cn(CCCc3cn(Cc4cnc(C)nc4N)nn3)nn2)cc1 [Compound 17b]	90 ± 5

tested on: HFF cells; assay: in vitro; type: cell-based, human; settings: IC50 (thiamine-free) vs HFF cytotoxicity
Procedure: as §1, §2, §3, §4, §5, §6

SMILES	Selectivity Index
Cc1ncc(Cn2cc(CCCC(=O)NO)nn2)c(N)n1 [Compound 24b]	16.7
Cc1ncc(Cn2cc(CCCCC(=O)NO)nn2)c(N)n1 [Compound 24c]	14.7
Cc1ncc(Cn2cc(CCCCn3cc(-c4ccc(F)cc4)nn3)nn2)c(N)n1 [Compound 16c]	0.7
COc1ccc(-c2cn(CCCc3cn(Cc4cnc(C)nc4N)nn3)nn2)cc1 [Compound 17b]	1.8

tested on: P. falciparum 3D7 transfected with an empty plasmid; assay: Anti-plasmodial activity, 3D7 transfected with an empty plasmid; type: cell-based; settings: Plasmodium falciparum, 3D7, read-out: IC50 anti-plasmodial activity, empty plasmid
Procedure: as §1, §2
as §3, with “Plates were incubated at 37 °C, under an atmosphere of 96% nitrogen, 3% carbon dioxide and 1% oxygen.” left out, “assay.” for “assay. 12 The concentration at which the compound suppresses”
(§7) Excel and analysed by non-linear regression plot using GraphPad Prism. […]

SMILES	IC50 [µM]
Cc1ncc(Cn2cc(CCCC(=O)NO)nn2)c(N)n1 [Compound 24b]	1.7 ± 0.3

tested on: P. falciparum 3D7 expressing PfTPK-GFP; assay: Anti-plasmodial activity, 3D7 expressing PfTPK-GFP; type: cell-based; settings: Plasmodium falciparum, 3D7, read-out: IC50 anti-plasmodial activity, PfTPK-GFP
Procedure: as §1, §2
as §3, with “Plates were incubated at 37 °C, under an atmosphere of 96% nitrogen, 3% carbon dioxide and 1% oxygen.” left out, “assay.” for “assay. 12 The concentration at which the compound suppresses”
as §7

SMILES	IC50 [µM]
Cc1ncc(Cn2cc(CCCC(=O)NO)nn2)c(N)n1 [Compound 24b]	2 ± 0.6
